This is an account of results in US7109243B2 (IRM LLC, priority 2003, dated 2006).

Test [1] has as its target T1, Cathepsin K (Homo sapiens, UniProt P43235).
T1 sequence (P43235 115-329): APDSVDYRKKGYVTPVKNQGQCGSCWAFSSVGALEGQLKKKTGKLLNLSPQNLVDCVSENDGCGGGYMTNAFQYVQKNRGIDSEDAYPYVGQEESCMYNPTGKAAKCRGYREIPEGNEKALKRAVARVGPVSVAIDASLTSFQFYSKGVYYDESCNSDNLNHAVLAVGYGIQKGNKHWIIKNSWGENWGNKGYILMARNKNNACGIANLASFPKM
In words: Cathepsin K inhibition assay (fluorogenic peptide substrate); selectivity ratio vs cathepsin S. The format is biochemical. Particulars: ratio of cathepsin K inhibition constant to cathepsin S inhibition constant; Table II. The method, boiled down: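 Inhibition constants for competitive inhibitors come from apparent values fitted to enzyme progress curves. Substrate, acetyl-Lys-His-Pro-Lys-aminocarbamoylcoumarin (40 μM final), starts the reaction; fluorescence rise read at 380 nm excitation, 450 nm emission. Selectivity ratio: other cathepsin constant over cathepsin S constant.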

Test [2] has as its target Cathepsin S (Homo sapiens, UniProt P25774). In words: Cathepsin S inhibition assay (fluorogenic peptide substrate). The following applies: Table II, compounds of Formula I; read-out: Ki Cat. S. The format is biochemical. A digest of the protocol:
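Ki values come from nonlinear fitting of inhibited hydrolysis rates, taking free and total inhibitor concentrations as equal. Rates measured as rising fluorescence at 380/450 nm after reaction start with 50 μM final acetyl-HPVK-aminocarbamoylcoumarin.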

Structures are written as SMILES. pKi: −log10 of the molar value. Where only a bound is given, the exact number is not on record here.

Chain of Cathepsin S (P25774 115-331, species assumed): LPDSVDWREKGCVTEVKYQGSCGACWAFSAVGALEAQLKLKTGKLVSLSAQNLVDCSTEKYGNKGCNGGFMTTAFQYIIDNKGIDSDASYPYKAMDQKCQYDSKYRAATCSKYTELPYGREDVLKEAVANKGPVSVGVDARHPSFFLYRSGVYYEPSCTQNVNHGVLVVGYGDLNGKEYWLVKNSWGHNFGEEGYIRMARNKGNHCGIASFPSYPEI

For `COc1ccc(NCCNC(=O)[C@H](Cc2ccc(-c3ccccc3[N+](=O)[O-])cc2)NC(=O)c2cccc(C)c2)cc1` [Compound 273, (S)-N-[1-[2-(4-Methoxy-phenylamino)-ethylcarbamoyl]-2-(2′-nitro-biphenyl-4-yl)-ethyl]-3-methyl-benzamide], the “Selectivity for Cat. S over Cat. K” value in test [1] is “++ (++, >100)”. Also, in test [2], the pKi (usually the Ki on a negative log10 scale, so that one unit is a factor of ten) is above 6.00.
Consider `COc1ccc(NCCNC(=O)[C@H](Cc2ccc(-c3cccnc3)cc2)NC(=O)c2cccc(C)c2)cc1` [Compound 274, (S)-N-[1-[2-(4-Methoxy-phenylamino)-ethylcarbamoyl]-2-(4-pyridin-3-yl-phenyl)-ethyl]-3-methyl-benzamide], for which, in test [1], the “Selectivity for Cat. S over Cat. K” value is recorded as “+++ (+++, >1000)”. In addition, the negative-log Ki (pKi) in test [2] is above 7.00.
Turning to `COc1ccc(NCCNC(=O)[C@H](Cc2ccc(-c3ccsc3)cc2)NC(=O)c2cccc(C)c2)cc1` [Compound 275, (S)-N-[1-[2-(4-Methoxy-phenylamino)-ethylcarbamoyl]-2-(4-thiophen-3-yl-phenyl)-ethyl]-3-methyl-benzamide], the “Selectivity for Cat. S over Cat. K” value in test [1] was “+++ (+++, >1000)”. In addition, the pKi in test [2] was above 7.00.
For `COc1ccc(NCCNC(=O)[C@H](Cc2ccc(-c3ccc(C#N)cc3)cc2)NC(=O)c2cccc(C)c2)cc1` [Compound 276, (S)-N-{2-(4′-Cyano-biphenyl-4-yl)-1-[2-(4-methoxy-phenylamino)-ethylcarbamoyl]-ethyl}-3-methyl-benzamide], the “Selectivity for Cat. S over Cat. K” value in test [1] is listed as “+++ (+++, >1000)”. Besides, the pKi in test [2] was above 7.00.
With `COc1ccc(NCCNC(=O)[C@H](Cc2ccc(-c3ccncc3)cc2)NC(=O)c2cccc(C)c2)cc1` [Compound 277, (S)-N-[1-[2-(4-Methoxy-phenylamino)-ethylcarbamoyl]-2-(4-pyridin-4-yl-phenyl)-ethyl]-3-methyl-benzamide], the “Selectivity for Cat. S over Cat. K” value in test [1] is on record as “++ (++, >100)”. The pKi in test [2] is above 7.00.
For `COc1ccc(NCCNC(=O)[C@H](Cc2ccc(-c3ccc(Cl)cc3)cc2)NC(=O)c2cccc(C)c2)cc1` [Compound 278, (S)-N-{2-(4′-Chloro-biphenyl-4-yl)-1-[2-(4-methoxy-phenylamino)-ethylcarbamoyl]-ethyl}-3-methyl-benzamide], the “Selectivity for Cat. S over Cat. K” value in test [1] was “++ (++, >100)”. The pKi in test [2] is above 6.00.
For the compound `COc1ccc(NCCNC(=O)[C@H](Cc2ccc(-c3cccc(OC)c3OC)cc2)NC(=O)c2cccc(C)c2)cc1` [Compound 279, (S)-N-{2-(2′,3′-Dimethoxy-biphenyl-4-yl)-1-[2-(4-methoxy-phenylamino)-ethylcarbamoyl]-ethyl}-3-methyl-benzamide], the “Selectivity for Cat. S over Cat. K” value in test [1] is on record as “++ (++, >100)”. Further, the pKi in test [2] was above 6.00.
For the compound `COc1ccc(NCCNC(=O)[C@H](Cc2ccc(-c3cccc(N)c3)cc2)NC(=O)c2cccc(C)c2)cc1` [Compound 280, (S)-N-{2-(3′-Amino-biphenyl-4-yl)-1-[2-(4-methoxy-phenylamino)-ethylcarbamoyl]-ethyl}-3-methyl-benzamide], in test [1], the “Selectivity for Cat. S over Cat. K” value was “++ (++, >100)”. The pKi in test [2] is above 6.00.
`COc1ccc(NCCNC(=O)[C@H](Cc2ccc(-c3ccc(OC)c(OC)c3)cc2)NC(=O)c2cccc(C)c2)cc1` [Compound 281, (S)-N-{2-(3′,4′-Dimethoxy-biphenyl-4-yl)-1-[2-(4-methoxy-phenylamino)-ethylcarbamoyl]-ethyl}-3-methyl-benzamide]: the “Selectivity for Cat. S over Cat. K” value in test [1] was “++ (++, >100)”. Further, in test [2], the pKi was above 6.00.
Regarding `COc1ccc(NCCNC(=O)[C@H](Cc2ccc(-c3ccc(CO)cc3)cc2)NC(=O)c2cccc(C)c2)cc1` [Compound 282, (S)-N-{2-(4′-Hydroxymethyl-biphenyl-4-yl)-1-[2-(4-methoxy-phenylamino)-ethylcarbamoyl]-ethyl}-3-methyl-benzamide], the “Selectivity for Cat. S over Cat. K” value in test [1] was “++ (++, >100)”. Also, in test [2], the pKi was above 6.00.
`COc1ccc(NCCNC(=O)[C@H](Cc2ccc(-c3cc(F)ccc3OC)cc2)NC(=O)c2cccc(C)c2)cc1` [Compound 283, (S)-N-{2-(5′-Fluoro-2′-methoxy-biphenyl-4-yl)-1-[2-(4-methoxy-phenylamino)-ethylcarbamoyl]-ethyl}-3-methyl-benzamide]: the “Selectivity for Cat. S over Cat. K” value in test [1] was “++ (++, >100)”. In test [2], the negative-log Ki (pKi) was above 6.00.
For `COc1ccc(NCCNC(=O)[C@H](Cc2ccc(-c3cccc(CO)c3)cc2)NC(=O)c2cccc(C)c2)cc1` [Compound 284, (S)-N-{2-(3′-Hydroxymethyl-biphenyl-4-yl)-1-[2-(4-methoxy-phenylamino)-ethylcarbamoyl]-ethyl}-3-methyl-benzamide], the “Selectivity for Cat. S over Cat. K” value in test [1] is on record as “++ (++, >100)”. Besides, the pKi in test [2] is above 6.00.
For `COc1ccc(NCCNC(=O)[C@H](Cc2ccc(-c3cc(OC)ccc3OC)cc2)NC(=O)c2cccc(C)c2)cc1` [Compound 285, (S)-N-{2-(2′,5′-Dimethoxy-biphenyl-4-yl)-1-[2-(4-methoxy-phenylamino)-ethylcarbamoyl]-ethyl}-3-methyl-benzamide], in test [1], the “Selectivity for Cat. S over Cat. K” value is reported as “++ (++, >100)”. For the same compound, in test [2], the pKi is above 6.00.
For the compound `COc1ccc(NCCNC(=O)[C@H](Cc2ccc(-c3cc(Cl)ccc3Cl)cc2)NC(=O)c2cccc(C)c2)cc1` [Compound 286, (S)-N-{2-(2′,5′-Dichloro-biphenyl-4-yl)-1-[2-(4-methoxy-phenylamino)-ethylcarbamoyl]-ethyl}-3-methyl-benzamide], the “Selectivity for Cat. S over Cat. K” value in test [1] was “+ (+, >10)”. Besides, in test [2], the negative-log Ki (pKi) is above 5.00.
`COc1ccc(NCCNC(=O)[C@H](Cc2ccc(-c3ccc(N(C)C)cc3)cc2)NC(=O)c2cccc(C)c2)cc1` [Compound 287, (S)-N-{2-(4′-Dimethylamino-biphenyl-4-yl)-1-[2-(4-methoxy-phenylamino)-ethylcarbamoyl]-ethyl}-3-methyl-benzamide]: the “Selectivity for Cat. S over Cat. K” value in test [1] is “++ (++, >100)”. Also, the pKi in test [2] was above 6.00.
`COc1ccc(NCCNC(=O)[C@H](Cc2ccc(-c3ccccc3C(C)=O)cc2)NC(=O)c2cccc(C)c2)cc1` [Compound 288, (S)-N-{2-(2′-Acetyl-biphenyl-4-yl)-1-[2-(4-methoxy-phenylamino)-ethylcarbamoyl]-ethyl}-3-methyl-benzamide]: the “Selectivity for Cat. S over Cat. K” value in test [1] is listed as “++ (++, >100)”. Further, the pKi in test [2] was above 6.00.
On to `COc1ccc(NCCNC(=O)[C@H](Cc2ccc(-c3ccc(O)cc3)cc2)NC(=O)c2cccc(C)c2)cc1` [Compound 289, (S)-N-{2-(4′-Hydroxy-biphenyl-4-yl)-1-[2-(4-methoxy-phenylamino)-ethylcarbamoyl]-ethyl}-3-methyl-benzamide], for which the “Selectivity for Cat. S over Cat. K” value in test [1] is on record as “++ (++, >100)”. Besides, in test [2], the pKi was above 6.00.
Consider `COc1ccc(NCCNC(=O)[C@H](Cc2ccc(-c3cccc(C(C)=O)c3)cc2)NC(=O)c2cccc(C)c2)cc1` [Compound 290, (S)-N-{2-(3′-Acetyl-biphenyl-4-yl)-1-[2-(4-methoxy-phenylamino)-ethylcarbamoyl]-ethyl}-3-methyl-benzamide], for which the “Selectivity for Cat. S over Cat. K” value in test [1] is given as “+++ (+++, >1000)”. Besides, the negative logarithm of the Ki (pKi) in test [2] was above 7.00.
Take `COc1ccc(NCCNC(=O)[C@H](Cc2ccc(-c3cnc(OC)nc3OC)cc2)NC(=O)c2cccc(C)c2)cc1` [Compound 291, (S)-N-{2-[4-(2,4-Dimethoxy-pyrimidin-5-yl)-phenyl]-1-[2-(4-methoxy-phenylamino)-ethylcarbamoyl]-ethyl}-3-methyl-benzamide]: in test [1], the “Selectivity for Cat. S over Cat. K” value is “++ (++, >100)”. Also, the pKi in test [2] is above 6.00.
Take `COc1ccc(NCCNC(=O)[C@H](Cc2ccc(-c3ccc(OC)nc3)cc2)NC(=O)c2cccc(C)c2)cc1` [Compound 292, (S)-N-{1-[2-(4-Methoxy-phenylamino)-ethylcarbamoyl]-2-[4-(6-methoxy-pyridin-3-yl)-phenyl]-ethyl}-3-methyl-benzamide]: the “Selectivity for Cat. S over Cat. K” value in test [1] is “+++ (+++, >1000)”. Also, in test [2], the negative logarithm of the Ki (pKi) is above 7.00.
Take `CS(=O)(=O)c1ccc(C(=O)N[C@@H](CC2CCCCC2)C(=O)NCCNc2ccc(F)cc2)s1` [Compound 293, 5-Methanesulfonyl-thiophene-2-carboxylic acid (S)-{2-cyclohexyl-1-[2-(4-fluoro-phenylamino)-ethylcarbamoyl]-ethyl}-amide]: the “Selectivity for Cat. S over Cat. K” value in test [1] is given as “++ (++, >100)”. Besides, the pKi in test [2] is above 7.00.
Regarding `C[C@H](C(=O)N[C@@H](CC1CCCCC1)C(=O)NCCNc1ccc(F)cc1)c1ccccc1` [Compound 294, N-(S)-{2-cyclohexyl-1-[2-(4-fluoro-phenylamino)-ethylcarbamoyl]-ethyl}-2-(S)-phenyl-propionamide], the “Selectivity for Cat. S over Cat. K” value in test [1] is reported as “++ (++, >100)”. In addition, the negative logarithm of the Ki (pKi) in test [2] was above 7.00.
With `O=C(N[C@@H](CC1CCCCC1)C(=O)NCCNc1ccc(F)cc1)c1ccnnc1` [Compound 295, Pyridazine-4-carboxylic acid (S)-{2-cyclohexyl-1-[2-(4-fluoro-phenylamino)-ethylcarbamoyl]-ethyl}-amide], in test [1], the “Selectivity for Cat. S over Cat. K” value is reported as “++ (++, >100)”. Moreover, the pKi in test [2] was above 6.00.
As to `CS(=O)(=O)c1cccc(C(=O)N[C@@H](CC2CCCCC2)C(=O)NCCNc2ccc(F)cc2)c1` [Compound 296, N-(S)-{2-cyclohexyl-1-[2-(4-fluoro-phenylamino)-ethylcarbamoyl]-ethyl}-3-methanesulfonyl-benzamide], in test [1], the “Selectivity for Cat. S over Cat. K” value was “+++ (+++, >1000)”. In addition, in test [2], the pKi is above 7.00.
